Laboratory results as given in patent US10899736B2, “Processes and intermediates for making a JAK inhibitor” (Incyte Corporation, priority 2018, dated 2021).

Molecular target: T1, human JAK1 (a.a. 837-1142) catalytic domain (Homo sapiens, UniProt P23458)
T1 construct: human JAK1 (a.a. 837-1142); His tag (N); made in house; host or cells: insect cells (baculovirus)
Assay: In vitro JAK kinase assay (HTRF, phosphorylation of biotinylated peptide)
Assay type: biochemical
Details: measured at 1 mM ATP
Procedure: The compound of Formula I was tested for inhibitory activity of JAK targets according to the following in vitro assay described in Park et al., Analytical Biochemistry 1999, 269, 94-104. The catalytic domains of human JAK1 (a.a. 837-1142) and JAK2 (a.a. 828-1132) with an N-terminal His tag were expressed using baculovirus in insect cells and purified. The catalytic activity of JAK1 and JAK2 was assayed by measuring the phosphorylation of a biotinylated peptide. The phosphorylated peptide was detected by homogenous time resolved fluorescence (HTRF). IC50s of compounds were measured for each kinase in the 40 micro L reactions that contain the enzyme, ATP and 500 nM peptide in 50 mM Tris (pH 7.8) buffer with 100 mM NaCl, 5 mM DTT, and 0.1 mg/mL (0.01%) BSA. For the 1 mM IC50 measurements, ATP concentration in the reactions was 1 mM. Reactions were carried out at room temperature for 1 hr and then stopped with 20 μL 45 mM EDTA, 300 nM SA-APC, 6 nM Eu-Py20 in assay buffer (Perkin Elmer, Boston, Mass.). Binding to the Europium labeled antibody took place for 40 minutes and HTRF signal was measured on a Fusion plate reader (Perkin Elmer, Boston, Mass.).

T1 sequence (P23458 849-1154): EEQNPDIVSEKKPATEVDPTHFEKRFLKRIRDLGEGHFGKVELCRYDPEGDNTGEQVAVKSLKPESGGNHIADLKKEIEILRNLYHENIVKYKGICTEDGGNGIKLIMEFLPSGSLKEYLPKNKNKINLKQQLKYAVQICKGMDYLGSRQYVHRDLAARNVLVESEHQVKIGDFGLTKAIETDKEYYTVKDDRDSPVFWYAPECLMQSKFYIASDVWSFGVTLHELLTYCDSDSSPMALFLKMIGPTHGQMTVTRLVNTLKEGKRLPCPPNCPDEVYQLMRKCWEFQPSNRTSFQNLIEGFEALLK

An IC50 of less than 5 nM was found for `N#CCC1(n2cc(-c3ncnc4[nH]ccc34)cn2)CN(C2CCN(C(=O)c3ccnc(C(F)(F)F)c3F)CC2)C1` [Formula I, {1-{1-[3-fluoro-2-(trifluoromethyl)isonicotinoyl]piperidin-4-yl}-3-[4-(7H-pyrrolo[2,3-d]pyrimidin-4-yl)-1H-pyrazol-1-yl]azetidin-3-yl}acetonitrile] in this work.
